Results on nine molecules are retold here after patent US11325929B2 (VivaVisionShanghaiLtd, priority 2017, dated 2022).

Broadly, the EC50 is the concentration that produces a half-maximal response.

For this experiment, the system named is human T lymphocyte strain Jurkat (ATCC TIB-152) adhesion to ICAM-1. The experiment in a line: T-cell adhesion assay (Jurkat cells on ICAM-1 coated plates). The experiment is classed as cell-based. Particulars: Homo sapiens; BCECF-AM labelled Jurkat cells, ICAM-1 coated plate, fluorescence readout; read-out: EC50 of cell adhesion and inhibition. As for the experimental part: Cell Adhesion Inhibition Experiments:
T-cell adhesion assay was performed using human T lymphocyte strain Jurkat (ATCC TIB-152): goat Anti-Human IgG (Fc specific) (Sigma 18885) was diluted to 10 μg/ml in PBS, incubated 100 μL per well/96 well plate at 4° C. for 12 hours. Liquid in the well plate was poured off, blocked with 200 μL of 1% BSA at 37° C. for 90 minutes, and washed three times with PBS. 50 μL of 1 μg/mL ICAM-1 (containing 0.1% BSA, 0.01% Tween 20) was added to each well and incubated at 37° C. for 3 hours. The plate was washed 3 times with assay buffer (20 mM HEPES pH 7.6, 140 mM NaCl, 1 mM MgCl2, 1 mM MnCl2, 0.2% glucose).
The Jurkat […] was centrifuged at 100-G, and cells were resuspended in an assay buffer (20 mM HEPES pH 7.6, 140 mM NaCl, 1 mM MgCl2, 1 mM MnCl2, 0.2% glucose) at 37° C.
2 μl of 1 mM of BCECF-AM per mL of the cell suspension was added. Incubated at 37° C. for 30 minutes, stirred up every 10 minutes during the incubation. After the incubation, the cells were washed with assay buffer at 37° C. The cells were suspended to a concentration of 6×10^6/mL.
The inhibitor was diluted to a final concentration of 2× in assay buffer, and 50 μL of the compound solution and […] of Jurkat cells were mixed at room temperature, and incubated at 37° C. for 30 minutes. 100 μL/well of cells and inhibitors were added to the plate and incubated for 1 hour at room temperature. The total fluorescence was measured by a fluorometer: ex: 485; em: 530; cutoff: 530 to measure the total fluorescence. The plate was washed once with the assay buffer and the fluorescence was measured with a fluorometer: ex: 485; em: 530; cutoff. The results are plotted as inhibition-concentration plots and EC50 is calculated using standard methods.

For `CS(=O)(=O)c1cccc(C[C@H](NC(=O)c2c(Cl)cc(C#CP(=O)(O)c3ccc4ccoc4c3)cc2Cl)C(=O)O)c1` [Example 49], the EC50 is 10.8 nM. With `CS(=O)(=O)c1cccc(C[C@H](NC(=O)c2c(Cl)cc(C(O)CP(=O)(O)c3cccc(O)c3)cc2Cl)C(=O)O)c1` (stereo partly drawn) [Example 50, (2s)-2-(2,6-dichloro-4-(1-hydroxy 2-(hydroxy(3-hydroxyphenyl)phosphoryl)ethyl)benzamido)-3-(3-(methylsulfonyl)phenyl)propionic Acid], the EC50 was 16 nM. For the molecule `CS(=O)(=O)c1cccc(C[C@H](NC(=O)c2c(Cl)cc(/C=C/P(=O)(O)c3cccc(O)c3)cc2Cl)C(=O)O)c1` [Example 51, (2s)-2-(2,6-dichloro-4-(2-(hydroxy(m-hydroxyphenyl)phosphoryl)vinyl)benzamido)-3-(3-(methylsulfonyl)phenyl)propionic Acid], the EC50 worked out at 4.2 nM. Regarding `CS(=O)(=O)c1cccc(C[C@H](NC(=O)c2c(Cl)cc(/C=C/P(=O)(c3cccc(O)c3)c3cccc(O)c3)cc2Cl)C(=O)O)c1` [Example 52, (S,E)-2-(4-(2-(bis(3-hydroxyphenyl)phosphonyl)vinyl)-2,6-dichlorobenzamido)-3-(3-(methylsulfonyl)phenyl)propionic Acid], the concentration for a half-maximal effect (EC50) came to 74 nM. For the molecule `CS(=O)(=O)c1cccc(C[C@H](NC(=O)c2c(Cl)cc(CCP(=O)(c3cccc(O)c3)c3cccc(O)c3)cc2Cl)C(=O)O)c1` [Example 53, (S,E)-2-(4-(2-(bis(3-hydroxyphenyl)phosphonyl)ethyl)-2,6-dichlorobenzamido)-3-(3-(methylsulfonyl)phenyl)propionic Acid], the EC50 is 22 nM. `CCOP(=O)(/C=C/c1cc(Cl)c(C(=O)N[C@@H](Cc2cccc(S(C)(=O)=O)c2)C(=O)O)c(Cl)c1)c1ccc(O)cc1` (stereo partly drawn) [Example 54]: the EC50 amounted to 9.6 nM.

For `CC(C)P(=O)(CCc1cc(Cl)c(C(=O)N[C@@H](Cc2cccc(S(C)(=O)=O)c2)C(=O)O)c(Cl)c1)c1cccc(O)c1` (stereo partly drawn) [Example 56], the EC50 is 63 nM. With `CS(=O)(=O)c1cccc(C[C@H](NC(=O)c2c(Cl)cc(/C=C/P(=O)(c3cccc(O)c3)C3CC3)cc2Cl)C(=O)O)c1` (stereo partly drawn) [Example 57], the EC50 is 5.3 nM.

For `CP(=O)(/C=C/c1cc(Cl)c(C(=O)N[C@@H](Cc2cccc(S(C)(=O)=O)c2)C(=O)O)c(Cl)c1)c1cccc(O)c1` (stereo partly drawn) [Example 58], the EC50 was 1.9 nM.
